Results from article PMC10482825 (Scientific Reports, 2023).
Converted amounts (≈) assume the structure as drawn. Where a SMILES comes first, the peptide text is derived from it.

Legend:
[1] = assay type: cell-based; details: 24 h, serum-free medium, MTT, 37 °C, 5% CO2; mean ± SD; read-out: IC50 (µM) A459
Procedure: (§1) The used mammalian cell lines in our study were colorectal adenocarcinoma (Caco2, ATCC-HTB-37), colorectal carcinoma (HCT 116, ATCC-CCL-247), lung carcinoma (A549, ATCC- CCL-185), cervical cancer cells (HeLa, ATCC-CCL-2), neuroblastoma (SH-SY5Y, ATCC- CRL-2266), rhabdomyosarcoma (RD, ATCC- CCL-136) and human embryonic kidney cells (HEK 293, ATCC- CRL-1573). All the cells were maintained into Dulbecco’s Modified Eagle’s Medium (DMEM) supplemented with 10% heat-inactivated fetal bovine serum, 2 mM L-Glutamine, 100 U/ml penicillin–streptomycin (Pen/Strep) at 37 °C in 5% CO2 humidified incubator.
(§2) First, the cytotoxic effect of 24 h serum deprivation on all the selected cell lines was evaluated by MTT assay, following standard protocols. Briefly, cells were seeded and maintained at 37 °C and 5% CO2 in 24-well plates until they reached 75–80% confluency (zero time). Following washing twice with 1X PBS, cells were incubated in a serum-free medium for 24 h, under the same incubation conditions. The cell viability percentages were calculated and compared to zero time as 100% viability to nullify any possible effects of serum deprivation. Thence, the cell viability percentage of each cell line in response to 24 h treatment with different concentrations of each cryptide in serum-free medium was calculated. […] All the measured cell viability percentages were normalised against the corresponding negative controls.

RD = assay type: cell-based; details: 24 h, serum-free medium, MTT, 37 °C, 5% CO2; mean ± SD
Procedure: as §1, §2

B. subtilis [2] = assay type: cell-based, Bacillus subtilis (ATCC, 11774); details: micro-broth dilution, 3 h peptide treatment then MHB 18 h, 37 °C, OD 600 nm
Excerpt: (§3) The microbial strains used in this study were Bacillus subtilis (ATCC, 11774), Candida albicans (TIMM, 1768), Enterococcus faecalis (ATCC, 33186), Escherichia coli (ATCC, 11775), Klebsiella pneumoniae (ATCC, 13883), Methicillin-resistant Staphylococcus aureus (ATCC, BAA-41), Pseudomonas aeruginosa (ATCC, 10145), Salmonella enterica (ATCC, 14028), Serratia marcescens (ATCC, 13880), Staphylococcus aureus (ATCC, 25923) and Vibrio parahaemolyticus (ATCC, 17802). All microbial strains were cultivated overnight at 37 °C and 200 rpm, then subcultured and incubated for 3 h under the same incubation conditions to obtain the mid-logarithmic growth phase. The cultivated cells were washed twice with 10 mM Tris–HCl containing 5 mM D-glucose at pH 7.4 and suspended in the same buffer to be used in different assays, as previously described.
(§4) As a conclusive quantitative assessment, broth microtiter assay was used to determine the MIC values of each cryptide against B. subtilis, MRSA, S. enterica, P. aeruginosa, V. parahaemolyticus and C. albicans by following the guidelines of the Clinical and Laboratory Standards Institute (CLSI)[67], with slight modifications. Eighty microliters of 5 × 10^4 CFU/ml of each pathogen were dispensed into a 96-well polypropylene microtiter plate. The wells were then treated with 20 µl of serially diluted cryptides for 3 h at 37 °C. Gentamicin was used for positive controls at 0.2 mg/ml while an equivalent volume of acidified water was used for negative controls. The plates were then topped up with a final concentration of 1 × Mueller Hinton Broth (MHB) and incubated for 18 h under the same incubation conditions. MIC was detected as the lowest concentration of each cryptide that prevents the optically detectable microbial growth at OD = 600 nm.

HEK-293 = experiment: MTT cytotoxicity on normal cells; assay type: cell-based, human; details: 25 µM (highest tested concentration), 24 h, serum-free medium
Procedure: as §1, §2

MRSA [3] = assay type: cell-based, Methicillin-resistant Staphylococcus aureus (ATCC, BAA-41); details: 20 µl of wells without growth on agar, 18 h, 37 °C
C. albicans [4] = assay type: cell-based, Candida albicans (TIMM, 1768); details: 20 µl of wells without growth on Sabouraud 4% Dextrose Agar, 18 h, 37 °C
[5] = tested on: S. enterica mature biofilm; experiment: Antibiofilm microtiter plate assay (mature biofilm, crystal violet); assay type: cell-based, Salmonella enterica (ATCC, 14028); details: tested 12.5-200 µM
Procedure: The antibiofilm activities of the selected cryptides against S. enterica and MRSA mature biofilms were examined by microtiter plate assay as previously described, with slight modification. During the mid-logarithmic phase, S. enterica and MRSA were suspended at the density of 1.7 × 10^8 CFU/ml in MHB. Then 100 µl of each bacterial suspension was dispensed into a vinyl 96 U-shaped-well plate and incubated overnight at 37 °C. The mature biofilms were washed with 10 mM Tris–HCl containing 5 mM D-glucose at pH 7.4 and treated for 8 h with 100 µl of two-fold serially diluted cryptides, under the same incubation conditions. A sterile MHB medium was used as the positive control while an equivalent volume of acidified water was used to treat the negative controls. The treated biofilms were washed twice with the same washing buffer and stained with 0.1% crystal violet for 15 min followed by rinsing with sterile distilled water twice and then dried for 30 min at 37 °C. The stain was dissolved with 33% acetic acid and transferred to an optically clear 96-well flat bottom plate which was then measured at 600 nm.
Table S.4 Antibiofilm activities of the selected Cryptides against S. enterica and MRSA. Microbial cells were suspended at 1.7 X 10^8 CFU/ml density, during the mid-logarithmic phase in MHB. Then, 96 U-shaped -well plates were inoculated with 100 µl of microbial suspension and incubated for 48 h at 37 °C. The formed biofilms were washed with 10 mM Tris-HCl and treated with 100 µl of different concentrations of each peptide for 24 h. The treated biomasses were washed and fixed with methanol for 15 min at -20 °C before staining with 0.1 % crystal violet. The stained biofilms were dissolved in 100 µl of 33 % acetic acid and the quantities of crystal violet stains were determined by measuring absorbance at 600 nm as an indicator of the remaining biomass after treatment. Untreated cells were used as negative control [indicating 100 % biofilm integrity] while the sterile medium was used as a positive control [indicating 0 % biofilm integrity].
S. enterica MRSA S. enterica MRSA S. enterica MRSA S. enterica MRSA S. enterica MRSA

S. enterica [6] = assay type: cell-based, Salmonella enterica (ATCC, 14028); details: micro-broth dilution, 3 h peptide treatment then MHB 18 h, 37 °C, OD 600 nm
Excerpt: as §3, §4

S. enterica [7] = assay type: cell-based, Salmonella enterica (ATCC, 14028); details: 20 µl of wells without growth on agar, 18 h, 37 °C
B. subtilis [8] = assay type: cell-based, Bacillus subtilis (ATCC, 11774); details: 20 µl of wells without growth on agar, 18 h, 37 °C
C. albicans [9] = assay type: cell-based, Candida albicans (TIMM, 1768); details: micro-broth dilution, 3 h peptide treatment then MHB 18 h, 37 °C, OD 600 nm
Excerpt: as §3, §4

HeLa = assay type: cell-based, human; details: 24 h, serum-free medium, MTT, 37 °C, 5% CO2; mean ± SD
Procedure: as §1, §2

Caco-2 = assay type: cell-based, human; details: 24 h, serum-free medium, MTT, 37 °C, 5% CO2; mean ± SD
Procedure: as §1, §2

MRSA [10] = assay type: cell-based, Methicillin-resistant Staphylococcus aureus (ATCC, BAA-41); details: micro-broth dilution, 3 h peptide treatment then MHB 18 h, 37 °C, OD 600 nm
Excerpt: as §3, §4

P. aeruginosa [11] = assay type: cell-based, Pseudomonas aeruginosa (ATCC, 10145); details: 20 µl of wells without growth on agar, 18 h, 37 °C
P. aeruginosa [12] = assay type: cell-based, Pseudomonas aeruginosa (ATCC, 10145); details: micro-broth dilution, 3 h peptide treatment then MHB 18 h, 37 °C, OD 600 nm
Excerpt: as §3, §4

SH-SY5Y = assay type: cell-based; details: 24 h, serum-free medium, MTT, 37 °C, 5% CO2; mean ± SD
Procedure: as §1, §2

[13] = tested on: the different tested pathogens; assay type: cell-based; details: span over tested pathogens, undetected values disregarded
Excerpt: as §3, §4

human RBCs = experiment: Hemolytic assay; assay type: cell-based; details: 2% RBCs in PBS, 2 h, 37 °C, supernatant at 450 nm, 0.1% TritonX-100 = maximum; highest tested concentration 100 µM
Procedure: All methods were carried out in accordance with the Declaration of Helsinki, and the Research Ethics Committee approved all experimental protocols at Sunway University (approval no. PGSUREC2020/005). A human blood sample was collected from a healthy person for this assay upon obtaining informed consent. The fresh blood sample was centrifuged at 3700 g for 5 min at RT. The supernatant (serum) was removed and red blood cells (RBCs) were washed three times with 1X PBS and diluted to a final concentration of 2% (PBS—137 mM NaCl, 2.7 mM KCl, 10 mM Na2HPO4, 1.76 mM KH2PO4). Cells were stored at 4 °C, and used within 5 h.
The hemolytic activities of the identified cryptides were evaluated as previously described. The prepared RBCs were treated with different peptide concentrations for 2 h at 37 °C. The treated RBCs were centrifuged, under the same centrifugation conditions, and the supernatants were transferred to a 96-well plate and measured at 450 nm.

HCT 116 = assay type: cell-based, human; details: 24 h, serum-free medium, MTT, 37 °C, 5% CO2; mean ± SD
Procedure: as §1, §2

| Compound | IC50 [1] [µM] | IC50 (RD) [µM] | MIC (µM) B. subtilis (B. subtilis [2]) [µM] | Cell death of HEK-293 (HEK-293) | MBC (µM) MRSA (MRSA [3]) [µM] | MFC (µM) C. albicans (C. albicans [4]) [µM] | Minimal biofilm eradication concentration (MBEC) S. enterica [5] [µM] | MIC (µM) S. enterica (S. enterica [6]) [µM] | MBC (µM) S. enterica (S. enterica [7]) [µM] | MBC (µM) B. subtilis (B. subtilis [8]) [µM] | MIC (µM) C. albicans (C. albicans [9]) [µM] | IC50 (HeLa) [µM] | IC50 (Caco-2) [µM] | MIC (µM) MRSA (MRSA [10]) [µM] | MBC (µM) P. aeruginosa (P. aeruginosa [11]) [µM] | MIC (µM) P. aeruginosa (P. aeruginosa [12]) [µM] | IC50 (SH-SY5Y) [µM] | further results |
| --- | --- | --- | --- | --- | --- | --- | --- | --- | --- | --- | --- | --- | --- | --- | --- | --- | --- | --- |
| CC(C)C[C@H](NC(=O)[C@H](C)NC(=O)[C@H](Cc1ccccc1)NC(=O)[C@@H](N)Cc1ccccc1)C(=O)N[C@@H](CCC(N)=O)C(=O)N[C@@H](CS)C(=O)N[C@@H](C)C(=O)N[C@@H](C)C(=O)N[C@@H](CCCCN)C(=O)N[C@H](C(=O)N[C@@H](CCCNC(=N)N)C(=O)N[C@H](C(=O)N[C@@H](CCCNC(=N)N)C(=O)N[C@@H](CCCNC(=N)N)C(=O)N[C@H](C(=O)O)C(C)C)[C@@H](C)O)[C@@H](C)O [AD12] (H-FFALQCAAKTRTRRV-OH) | 9.4 ± 1 | 159 | 0.78 (≈ 1.38 µg/mL) | less than 10% | 25 (≈ 44.2 µg/mL) | 12.5 (≈ 22.1 µg/mL) | 200 | 0.78 (≈ 1.38 µg/mL) | 0.78 (≈ 1.38 µg/mL) | 0.78 (≈ 1.38 µg/mL) | 12.5 (≈ 22.1 µg/mL) | 8.5 ± 0.5 | 4.35 | 6.25 (≈ 11.1 µg/mL) | 25 (≈ 44.2 µg/mL) | 12.5 (≈ 22.1 µg/mL) |  |  |
| CC(C)[C@H](NC(=O)[C@H](CO)NC(=O)[C@H](Cc1ccccc1)NC(=O)[C@H](CC(N)=O)NC(=O)[C@H](CS)NC(=O)[C@H](Cc1ccc(O)cc1)NC(=O)[C@H](Cc1c[nH]cn1)NC(=O)CN)C(=O)N[C@H](C(=O)N1CCC[C@H]1C(=O)N[C@@H](CCCCN)C(=O)N[C@@H](Cc1ccccc1)C(=O)N[C@@H](CCCCN)C(=O)N[C@@H](CCCNC(=N)N)C(=O)N[C@@H](Cc1c[nH]c2ccccc12)C(=O)O)[C@@H](C)O [AD8] (H-GHYCNFSVTPKFKRW-OH) | 7.3 ± 0.5 | 27.2 ± 0.4 | 0.78 (≈ 1.46 µg/mL) | less than 10% | 12.5 (≈ 23.4 µg/mL) | 6.25 (≈ 11.7 µg/mL) | 200 | 0.78 (≈ 1.46 µg/mL) | 0.78 (≈ 1.46 µg/mL) | 0.78 (≈ 1.46 µg/mL) | 6.25 (≈ 11.7 µg/mL) | 42.6 ± 0.3 | 4.4 ± 0.5 | 3.12 (≈ 5.83 µg/mL) | 50 (≈ 93.5 µg/mL) | 25 (≈ 46.8 µg/mL) | 23.3 ± 0.7 | MBC values, range against the different tested pathogens [13]: 0.78 ~ 50 µM; MIC values, range against the different tested pathogens [13]: 0.78 ~ 25 µM |
| N.N.[Cl][Pt][Cl] [Cisplatin, reference compound] | 15.3 ± 0.6 | 74 ± 1.2 |  |  |  |  |  |  |  |  |  | 63.6 ± 0.4 |  |  |  |  | 54.4 ± 0.8 | Hemolysis of human RBCs at 100 µM (human RBCs): less than 10%; IC50 (µM) HCT 116 (HCT 116): resistant |
